Measurements reported in US20230113802A1, “COMPOSITION AND METHOD TO PREPARE LONG-ACTING INJECTABLE SUSPENSION CONTAINING MULTIPLE CANCER DRUGS” (University of Washington, priority 2020, published 2023).
Like-named read-outs stand apart in the source and are kept apart here. Marks after values point to notes of the source that are not given here.

Tests used:
[1] = Pharmacokinetic study of GT in DcNPs compared to CrEL (Example 2), plasma G, T and dFdU; format: in vivo, BALB/c mice; conditions: for MRT / concentration at 3 h / AUC(0-inf) / C0 / half-life / Vd: female, BALB/c, mouse, plasma; for MRT: read-out: MRT (mean residence time); for concentration at 3 h: intravenous; for C0: read-out: C0 (concentration at time 0, back extrapolated); for half-life: read-out: T1/2,app (converted); for Vd: read-out: Vss; for time over which concentrations in plasma were detected: mice administered GT DcNPs, 48-hour study; for plasma concentration by 24 hours: mice treated with the CrEL control formulation
Source text: Drugs extracted from biological matrices such as plasma or tissue homogenates were quantified by a Shimadzu HPLC system coupled to a 3200 QTRAP mass spectrometer (Applied Biosystems, Grand Island, N.Y.). The HPLC system consisted of two Shimadzu LC-20A pumps, a DGU-20A5 degasser, and a Shimadzu SIL-20AC HT autosampler. The mass spectrometer was equipped with an electrospray ionization (ESI) TurbolonSpray source. The system was operated with Analyst software, version 1.5.2 (ABSciex, Framingham, Mass.). Chromatographic separation of G and T was achieved using a Synergi column (100×2.0 mm; 4-μm particle size) (Phenomenex, Torrance, Calif.) with an inline C8 guard column (4.0×2.0 mm) also from Phenomenex. The flow rate was set to 0.5 mL/min with a 5 μl sample injection volume. The mobile phase for separation consisted of pump A (20 mM Ammonium Acetate in water) and B (Reagent Alcohol). […] The needle was washed with isopropanol after each injection. Analytes were monitored using multiple-reaction monitoring (MRM) for positive ions.
Statistical comparisons were performed using 2-sided t-tests with Welch's correction for unequal variances. Significance probability α was set at 0.05. Pharmacokinetic parameters from non-compartmental analysis were calculated using the trapezoidal rule and relevant pharmacokinetic equations shown in Table 3.

[2] = Mechanism-based pharmacokinetic modeling (MBPK) of DcNP associated and dissociated GT; design: species or system mice; conditions: for V, DcNP Dissociated Parameter: fitted to CrEL data
Source text: Briefly, the model adopted here for GT is composed of two sub-models representing DcNP-associated drug and dissociated drug species. Each sub-model has a central compartment and a peripheral compartment. The observed plasma concentration is the sum of DcNP-associated and dissociated species since they cannot be measured separately. […] These parameters were then fixed and the linked sub-models were fitted to the observed total concentrations for G and T obtained after injection of the DcNP-dose. The model reasonably assumed that the pharmacokinetics of drugs released from particles will be the same as that of the free-drug (CrEL) control. It was assumed that G and T are released from the particle at independent rates (k1,3) in the central compartment and only dissociated drugs are subject to clearance from the system (k0,1). […] The peripheral compartment features purely drug exchange between plasma and a group of slowly equilibrating tissues (k4,3, k3,4). In other words, the DcNP-associated drug is cleared only via its release from the particles in the central compartment. […] MBPK modeling and parameter estimations were performed using SAAM II v2.3.
To further understand the effect of DcNP on the pharmacokinetic behavior of GT, a mechanism-based pharmacokinetic model (MBPK) was used to simulate the time course of DcNP-associated and dissociated drugs in plasma. The MBPK model adapted for GT-DcNPs is based on a validated MBPK model developed for long-acting HIV drug combination nanoparticles tested in non-human primates. Experimentally, the total drug concentrations in plasma (i.e., DcNP-associated plus dissociated) can be measured, but DcNP-associated and dissociated drugs could not be distinguished. […] The MBPK model presented in FIG. 4 utilizes data from both DcNP and CrEL control formulation treated animals to estimate plasma concentrations of DcNP-associated and dissociated drug species over time and their respective time-averaged fractions in vivo. After intravenous administration as a DcNP, GT can theoretically exist in at least two species: DcNP-associated drug and dissociated drug. The latter can be reasonably assumed to distribute and be cleared as free G and T after administration of CrEL control formulation.
Individual distribution, metabolism and elimination of G and T are well characterized. […] T is metabolized in the liver primarily by CYP3A4 and CYP2C8 with subsequent excretion of metabolites into the bile. In this model, the k0,1 term represents the aggregate elimination processes of G and T through their independent described pathways. A peripheral compartment for both G and T was added and distribution was parameterized with the k1,2 and k2,1 terms. […] With these assumptions in place, the k1,3 term was set to link the two sub-models and represent the release mechanism of drug from DcNP into the central compartment. The DcNP associated species of G and T was then parameterized with the k4,3 and k3,4 to account for distribution.

[3] = Control (CrEL suspension), 50/5 mg/kg G/T IV, mice
[4] = GT DcNP, 50/5 mg/kg G/T IV, mice
[5] = after GT DcNP dosing, 50/5 mg/kg G/T IV, mice
[6] = after control CrEL dosing, 50/5 mg/kg G/T IV, mice
[7] = iv, 50 mg/kg, Control (CrEL suspension), 50/5 mg/kg G/T IV, mice
[8] = iv, 50 mg/kg, GT DcNP, 50/5 mg/kg G/T IV, mice
[9] = iv, GT DcNP, 50/5 mg/kg G/T IV, mice
[10] = model derived, single IV dose in GT DcNP dosage form
[11] = model derived, single IV dose in GT DcNP dosage form, listed as G
[12] = iv, 5 mg/kg, Control (CrEL suspension), 50/5 mg/kg G/T IV, mice
[13] = iv, 5 mg/kg, GT DcNP, 50/5 mg/kg G/T IV, mice
[14] = iv, Control (CrEL suspension), 50/5 mg/kg G/T IV, mice

Nc1ccn([C@@H]2O[C@H](CO)[C@@H](O)C2(F)F)c(=O)n1 [Gemcitabine, 4-amino-1-[(2R,4R,5R)-3,3-difluoro-4-hydroxy-5-(hydroxymethyl)oxolan-2-yl]pyrimidin-2-one]
AUC0 to ∞ Ratio (DcNP to control) ([1]; 50/5 mg/kg G/T IV, mice): 61.0
C0 Ratio (DcNP to control) ([1]; 50/5 mg/kg G/T IV, mice): 1.1
Dose/AUC Ratio (DcNP to control) ([1]; 50/5 mg/kg G/T IV, mice): 0.02
MRT Ratio (DcNP to control) ([1]; 50/5 mg/kg G/T IV, mice): 45.2
T1/2,app Ratio (DcNP to control) ([1]; 50/5 mg/kg G/T IV, mice): 8.6
Vss Ratio (DcNP to control) ([1]; 50/5 mg/kg G/T IV, mice): 0.7
plasma concentration at 3 hours, DcNP times greater than CrEL ([1]; 50/5 mg/kg G/T IV, mice): 470 times
AUC0 to ∞ Ratio (DcNP to control) ([1]; 50/5 mg/kg G/T IV, mice, listed as G): 61
AUC0 to ∞ Ratio (DcNP to control) ([1]; 50/5 mg/kg G/T IV, mice, listed as gemcitabine): 50
Dose/AUC (apparent clearance) [1, 3]: 65.2 mL/h
G to dFdU ratio in plasma at 6 hours ([1]; CrEL control dosage form): 0.01
difference in mean residence times of G and T after DcNP administration ([1]; GT DcNP): 11.3 fold
Dose/AUC (apparent clearance) [1, 4]: 1.1 mL/h
plasma concentration within 15 minutes ([1]; after GT in CrEL control dosage form IV, mice): 12023.5 ng/mL
mean plasma concentration at 3 hours ([1]; after control CrEL dosing, 50/5 mg/kg G/T IV, mice, listed as G): 87.3 ng/mL
MRT ([1]; 50 mg/kg, Control (CrEL suspension), 50/5 mg/kg G/T IV, mice): 0.25 h
concentration at 3 h [1, 5]: 41100 ng/mL
concentration at 3 h [1, 6]: 87.3 ng/mL
AUC(0-inf) [1, 7]: 15300 ng·h/mL
C0 [1, 7]: 165000 ng/mL
half-life [1, 7]: 1.6 h
Vd [1, 7]: 0.0166 L
AUC(0-inf) [1, 8]: 937000 ng·h/mL
C0 [1, 8]: 181000 ng/mL
MRT [1, 8]: 11.3 h
half-life [1, 8]: 13.7 h
Vd [1, 8]: 0.0121 L
half-life [1, 9]: 13.7 h
time over which concentrations in plasma were detected [1]: ≥ 48 h
plasma concentration by 24 hours [1]: fell below the detection limit
decrease of estimated volume of central compartment, DcNP compared to CrEL [2]: 4.6 times
release parameter (k1,3) of G lower than T ([2]; GT DcNP): 9.5 fold
K0,1, DcNP Dissociated Parameter [2, 10]: 3.9 ± 0.9 h⁻¹
K1,2, DcNP Dissociated Parameter [2, 10]: 0.5 ± 0.2 h⁻¹
K1,3 (release parameter), DcNP Associated Parameter [2, 10]: 0.2 ± 0.02 h⁻¹
K2,1, DcNP Dissociated Parameter [2, 10]: 0.2 ± 0.1 h⁻¹
K3,4, DcNP Associated Parameter [2, 10]: 0.6 ± 0.1 h⁻¹
K4,3, DcNP Associated Parameter [2, 10]: 1.8 ± 0.5 h⁻¹
VDcNP, DcNP Associated Parameter [2, 10]: 5.2 ± 0.6 mL
V, DcNP Dissociated Parameter [2, 10]: 24 ± 12 mL
V, DcNP Dissociated Parameter [2, 11]: 24 mL
K1,3 (release parameter), DcNP Associated Parameter [2, 11]: 0.2 h⁻¹
VDcNP, DcNP Associated Parameter [2, 11]: 5.2 mL

CC(=O)O[C@H]1C(=O)[C@@]2(C)[C@H]([C@H](OC(=O)c3ccccc3)[C@]3(O)C[C@H](OC(=O)[C@H](O)[C@@H](NC(=O)c4ccccc4)c4ccccc4)C(C)=C1C3(C)C)[C@]1(OC(C)=O)CO[C@@H]1C[C@@H]2O [Paclitaxel, [(1S,2S,3R,4S,7R,9S,10S,12R,15S)-4,12-diacetyloxy-15-[(2R,3S)-3-benzamido-2-hydroxy-3-phenylpropanoyl]oxy-1,9-dihydroxy-10,14,17,17-tetramethyl-11-oxo-6-oxatetracyclo[11.3.1.0^3,10.0^4,7]heptadec-13-en-2-yl] benzoate]
plasma concentration at 3 hours, DcNP times greater than CrEL ([1]; 50/5 mg/kg G/T IV, mice): 3.3 times
Dose/AUC (apparent clearance) [1, 3]: 38.3 mL/h
T1/2,app [1, 3]: 1.8 h
Dose/AUC (apparent clearance) [1, 4]: 10.2 mL/h
T1/2,app [1, 4]: 2.0 h
concentration at 3 h [1, 5]: 643 ng/mL
concentration at 3 h [1, 6]: 194 ng/mL
MRT [1, 12]: 1 h
Vd [1, 12]: 0.0356 L
MRT [1, 13]: 1 h
Vd [1, 13]: 0.01 L
AUC(0-inf) [1, 14]: 2610 ng·h/mL
C0 [1, 14]: 17700 ng/mL
AUC(0-inf) [1, 9]: 9810 ng·h/mL
C0 [1, 9]: 13900 ng/mL
time over which concentrations in plasma were detected [1]: ≤ 6 h
plasma concentration by 24 hours [1]: fell below the detection limit
VDcNP, DcNP Associated Parameter [2, 10]: 0.8^a mL
